Tests used:
K-Ras G12C [1] = molecular target: T1, K-Ras G12C (Homo sapiens, UniProt P01116, G12C); experiment: K-Ras G12C, SOS1, Raf RBD HTRF assay for inhibition of GTP exchange; format: biochemical; design: K-Ras G12C (residues 2-188) and SOS1 (residues 564-1049) had N-terminal 6-His; made in house; host or cells: E. coli; settings: 18 hours preincubation with K-Ras G12C at room temperature; SOS1-mediated GTP exchange
Description: K-Ras G12C, SOS1, Raf RBD Homogeneous Time Resolved Fluorescence (HTRF) Assay for Inhibition of GTP Exchange
After 18 hours at room temperature, the SOS1 GTP exchange factor (1.67 nM during exchange, 1.25 nM final) was added to initiate nucleotide exchange to GTP (200 μM during exchange, 150 μM final). The level of GTP exchange was assessed by addition of a Ras binding domain derived from C-Raf and the HTRF detection antibodies Tb-anti-FLAG and D2-anti-his (Cis-Bio) at 50 nM, 1 nM and 12.5 nM, respectively. After 2 hours, the ratio of 665 nm to 615 nm emission with 320 nm excitation was measured on an Envision plate reader (Perkin Elmer).
The final reaction volume was 20 μl in a ProxiPlate-384F Plus (Perkin Elmer), in buffer containing 20 mM HEPES, 150 mM NaCl, 1 mM MgCl2, 0.1% BSA, 0.03% Tween-20 and 1 mM DTT. […] HTRF data are presented below in Table 2.
Target sequence in this assay (P01116 2-188 isoform P01116-2 G12C): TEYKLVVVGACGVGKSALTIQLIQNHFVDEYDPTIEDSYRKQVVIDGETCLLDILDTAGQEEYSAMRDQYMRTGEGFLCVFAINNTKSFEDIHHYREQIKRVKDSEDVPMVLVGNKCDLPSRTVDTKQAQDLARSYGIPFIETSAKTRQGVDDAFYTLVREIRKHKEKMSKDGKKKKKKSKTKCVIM

K-Ras G12C [2] = molecular target: T1, K-Ras G12C; experiment: Western blot assay for in cell alkylation of K-Ras G12C (HCC1171 cells); format: cell-based; design: endogenous in cells; host or cells: HCC1171; settings: 18 hours at 37° C., 7 point dose response
Description: Western Blot Assay for in Cell Alkylation of K-Ras G12C
HCC1171 cells were maintained in RPMI1640 supplemented with 10% FBS. Cells were plated in a 96-well plate at 20,000 cells/well and the following day compounds were added to the cells. After 18 hours at 37° C., cells were lysed in RIPA buffer (Sigma R0278) with 0.5% SDS and protease/phosphatase inhibitor cocktail. After through mixing to enable complete lysis, the lysates were cleared by centrifugation before 20 μl was transferred from each well and combined with loading buffer and reducing agent. After heating for 10 minutes at 95° C., 15 μl of each sample was loaded onto a 4-20% Tris-Glycine gel and electrophoresed at 110V for 165 minutes in SDS-PAGE running buffer. Gels were transferred to a nitrocellulose membrane, blocked for 1 hour and stained overnight at 4° C. with primary antibody against K-Ras (polyclonal Proteintech 12063-1-AP). The membrane was then washed thoroughly and counterstained with anti-rabbit IRDye 800CW (LI-COR 926-32211) for one hour at room temperature. After final washes, the membrane was imaged on a LI-COR Odyssey CLx at medium resolution. Alkylated K-Ras was visible by an electrophoretic shift from unmodified K-Ras. To quantify this affect, the LICOR software was used to draw a rectangle over alkylated and unalkylated bands for each well and measured the total fluorescent intensity (FI) in each of these bands. The following formula was then used to calculate % alkylation: FI(alkylated)/(FI(alkylated)+FI(unalkylated))*100 for each well.
A 7 point dose response curve was used to determine the IC50 for each compound. Cell alkylation data are presented below in Table 2.
Target sequence in this assay (P01116 1-188 isoform P01116-2 G12C): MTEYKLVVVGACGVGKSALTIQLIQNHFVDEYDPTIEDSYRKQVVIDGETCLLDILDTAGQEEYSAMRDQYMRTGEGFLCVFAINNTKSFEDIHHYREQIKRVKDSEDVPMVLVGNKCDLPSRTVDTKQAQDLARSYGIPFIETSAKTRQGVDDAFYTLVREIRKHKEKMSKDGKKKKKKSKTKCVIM

SMILES | IC50 (K-Ras G12C [1]) [µM] | EC50 (K-Ras G12C [2]) [µM]
C=C(F)C(=O)N1CCN(c2nc(OC[C@@H]3CCCN3C)nc3c2CCC(c2cc(O)cc4ccccc24)C3)CC1CC#N (mixture of isomers) [Example 61a, 2-(1-(2-fluoroacryloyl)-4-(7-(3-hydroxynaphthalen-1-yl)-2-(((S)-1-methylpyrrolidin-2-yl)methoxy)-5,6,7,8-tetrahydroquinazolin-4-yl)piperazin-2-yl)acetonitrile] | 0.038 | 0.016
CN1CCC[C@H]1COc1nc2c(c(N3CCN(C(=O)/C=C/CF)C(CC#N)C3)n1)CCC(c1cc(O)cc3ccccc13)C2 (mixture of isomers) [Example 62a, 2-(1-((E)-4-fluorobut-2-enoyl)-4-(7-(3-hydroxynaphthalen-1-yl)-2-(((S)-1-methylpyrrolidin-2-yl)methoxy)-5,6,7,8-tetrahydroquinazolin-4-yl)piperazin-2-yl)acetonitrile] | 0.018 | 0.014
C=CC(=O)N1CCN(c2ncnc3c2C[C@@H](C)[C@@H](c2nc(N)cc(C)c2C(F)(F)F)C3)CC1 (single isomer, unassigned) [Example 1a] | > 50 | 10
C=CC(=O)N1CCN(c2ncnc3c2C[C@H](C)[C@H](c2nc(N)cc(C)c2C(F)(F)F)C3)CC1 (single isomer, unassigned) [Example 1b] | > 50 | 10
C=CC(=O)N1CCN(c2ncnc3c2CC[C@@H](c2nc(N)cc4ccccc24)C3)CC1 (single isomer, unassigned) [Example 3a] | > 50 | 30
C=CC(=O)N1CCN(c2ncnc3c2CC[C@H](c2nc(N)cc4ccccc24)C3)CC1 (single isomer, unassigned) [Example 3b] | 0.71 | 5.5
C=CC(=O)N1CCN(c2ncnc3c2C[C@H](C)[C@@H](c2cc(CO)ccc2C)C3)CC1 (single isomer, unassigned) [Example 4a] | > 50 | –
C=CC(=O)N1CCN(c2ncnc3c2C[C@@H](C)[C@H](c2cc(CO)ccc2C)C3)CC1 (single isomer, unassigned) [Example 4b] | 0.39 | 1.3
C=CC(=O)N1CCN(c2nc(OC[C@@H]3C[C@@H](F)CN3C)nc3c2C[C@H](C)[C@@H](c2nc(NC)cc(C)c2C(F)(F)F)C3)[C@@H](C)C1 (single isomer, unassigned) [Example 5a] | > 20 | –
C=CC(=O)N1CCN(c2nc(OC[C@@H]3C[C@@H](F)CN3C)nc3c2C[C@@H](C)[C@H](c2nc(NC)cc(C)c2C(F)(F)F)C3)[C@@H](C)C1 (single isomer, unassigned) [Example 5b] | 0.045 | 0.18
C=CC(=O)N1CCN(c2ncnc3c2CC[C@H](c2cccc4c2CCC4)C3)CC1 (single isomer, unassigned) [Example 6a] | 2.3 | –
C=CC(=O)N1CCN(c2ncnc3c2CC[C@@H](c2cccc4c2CCC4)C3)CC1 (single isomer, unassigned) [Example 6b] | > 50 | –
C=CC(=O)N1CCN(c2ncnc3c2C[C@H](C)[C@@H](c2nc(N)cc(C)c2C(F)(F)F)C3)CC1 (single isomer, unassigned) [Example 8a] | 3.5 | –
C=CC(=O)N1CCN(c2ncnc3c2C[C@@H](C)[C@H](c2nc(N)cc(C)c2C(F)(F)F)C3)CC1 (single isomer, unassigned) [Example 8b] | 0.045 | 0.089
C=CC(=O)N1CCN(c2ncnc3c2CC[C@H](c2c(C)ccc4c2COC4)C3)CC1 (single isomer, unassigned) [Example 9a] | 4.2 | –
C=CC(=O)N1CCN(c2ncnc3c2CC[C@@H](c2c(C)ccc4c2COC4)C3)CC1 (single isomer, unassigned) [Example 9b] | > 50 | –
C=CC(=O)N1CCN(c2ncnc3c2CC[C@@H](c2c(C)c(C)cc4[nH]cnc24)C3)CC1 (single isomer, unassigned) [Example 10a] | 19 | –
C=CC(=O)N1CCN(c2ncnc3c2CC[C@H](c2c(C)c(C)cc4[nH]cnc24)C3)CC1 (single isomer, unassigned) [Example 10b] | 0.27 | 1

SMILES | IC50 (K-Ras G12C [1]) [µM] | EC50 (K-Ras G12C [2]) [µM]
C=CC(=O)N1CCN(c2nc(OC[C@@H]3CCCN3C)nc3c2C[C@H](C)[C@@H](c2c(C)c(C)cc(N)c2F)C3)[C@@H](C)C1 (single isomer, unassigned) [Example 11a] | 1.3 | –
C=CC(=O)N1CCN(c2nc(OC[C@@H]3CCCN3C)nc3c2C[C@@H](C)[C@H](c2c(C)c(C)cc(N)c2F)C3)[C@@H](C)C1 (single isomer, unassigned) [Example 11b] | < 0.01 | 0.047
C=CC(=O)N1CCN(c2nc(OC[C@@H]3CCCN3C)nc3c2C[C@H](C)[C@@H](c2c(F)c(N)cc(C)c2C(F)(F)F)C3)[C@@H](C)C1 (single isomer, unassigned) [Example 12a] | 0.61 | 1.1
C=CC(=O)N1CCN(c2ncnc3c2CC[C@@H](c2c(F)c(N)cc(F)c2C(F)(F)F)C3)CC1 (single isomer, unassigned) [Example 13a] | 2 | –
C=CC(=O)N1CCN(c2ncnc3c2CC[C@H](c2c(F)c(N)cc(F)c2C(F)(F)F)C3)CC1 (single isomer, unassigned) [Example 13b] | 0.084 | 0.69
COc1ccc(CN(Cc2ccc(OC)cc2)c2cc(C)c(I)c([C@@H]3Cc4nc(OC[C@@H]5CCCN5C)nc(N5CCN(C(=O)OC(C)(C)C)C[C@@H]5C)c4C[C@H]3C)c2F)cc1 (single isomer, unassigned) [Example 14a] | > 50 | 1
COc1ccc(CN(Cc2ccc(OC)cc2)c2cc(C)c(I)c([C@H]3Cc4nc(OC[C@@H]5CCCN5C)nc(N5CCN(C(=O)OC(C)(C)C)C[C@@H]5C)c4C[C@@H]3C)c2F)cc1 (single isomer, unassigned) [Example 14b] | > 50 | 1
CNC/C=C/C(=O)N1CCN(c2ncnc3c2C[C@H](C)[C@@H](c2c(C)ccc4[nH]ncc24)C3)CC1 (single isomer, unassigned) [Example 19b] | > 30 | –
C=CC(=O)N1CCN(c2nc(OC[C@@H]3C[C@@H](F)CN3C)nc3c2C[C@H](C)[C@@H](c2nc(N)cc(C)c2C2CC2)C3)[C@@H](C)C1 (single isomer, unassigned) [Example 24a] | > 50 | –
C=CC(=O)N1CCN(c2ncnc3c2CC[C@@H](c2c(F)c(N)cc(C)c2C(F)(F)F)C3)CC1 (single isomer, unassigned) [Example 27b] | 3 | –
C=CC(=O)N1CCN(c2nc(OC[C@@H]3C[C@H](F)CN3C)nc3c2CC[C@@H](c2cc(O)cc4ccccc24)C3)[C@@H](C)C1 (single isomer, unassigned) [Example 30b] | 1.2 | –
C=CC(=O)N1CCN(c2ncnc3c2C[C@H](C)[C@@H](c2nc(N)ccc2C(F)(F)F)C3)CC1 (single isomer, unassigned) [Example 42a] | 2.7 | –
C=CC(=O)N1CCN(c2ncnc3c2CC[C@@H](c2nc(N)ccc2C(F)(F)F)C3)CC1 (single isomer, unassigned) [Example 46a] | 2 | –
C=C(F)C(=O)N1CCN(c2nc(OC[C@@H]3CCCN3C)nc3c2CCC(c2cccc4ccccc24)C3)CC1CC#N (single isomer, unassigned) [Example 47b] | 1.5 | –
C=CC(=O)N1CCN(c2nc(OC[C@@H]3COC(=O)N3C)nc3c2CC[C@@H](c2cc(O)cc4ccccc24)C3)[C@@H](C)C1 (single isomer, unassigned) [Example 57b] | 14 | –
C=CC(=O)N1CCN(c2nc(OC[C@@H]3CCCN3C)nc3c2CCCC3)CC1 [Example 45a, 1-[4-[2-[[(2S)-1-methylpyrrolidin-2-yl]methoxy]-5,6,7,8-tetrahydroquinazolin-4-yl]piperazin-1-yl]prop-2-en-1-one] | > 50 | –
C=CC(=O)N1CCN(c2nc(OCc3cn(C)cn3)nc3c2CCC(c2cc(O)cc4ccccc24)C3)[C@@H](C)C1 (stereo partly drawn) [Example 54a, 1-((3S)-4-(7-(3-hydroxynaphthalen-1-yl)-2-((1-methyl-1H-imidazol-4-yl)methoxy)-5,6,7,8-tetrahydroquinazolin-4-yl)-3-methylpiperazin-1-yl)prop-2-en-1-one] | 0.47 | –
